Measured values as given in doi:10.1101/2024.08.25.609621 (bioRxiv, 2024).
Values joined by “and” are separate entries in the source; they are usually repeats but may differ in a detail not shown here. Identical values can stand only once. Like-named read-outs stand apart in the source and are kept apart here.

What was measured:
[1] = biological target: SARS-CoV-2 NSP3 macrodomain (Mac1) (Severe acute respiratory syndrome coronavirus 2, UniProt P0DTD1); test: biochemical; type: binding; settings: for Ligand efficiency: binding energy per heavy atom
[2] = biological target: SARS-CoV-2 NSP3 macrodomain (Mac1), P43 crystal form (Severe acute respiratory syndrome coronavirus 2, UniProt P0DTD1); type: binding
[3] = SARS CoV-2 macrodomain HTRF assay
[4] = SARS CoV-2 macrodomain HTRF assay, dose-response, read-out: Ki
[5] = ligand modeling in Mac1 crystal soak
[6] = Single dose, 200 μM, mean of three technical replicates, read-out: Average % competition
[7] = preliminary screen, compound at 200 μM, mean of 3-4 technical replicates, read-out: % competition in HTRF assay
[8] = stereoisomer(s) of ligand modeled in Mac1 crystal structure
[9] = dose-response, read-out: SARS CoV-2 macrodomain HTRF assay: IC50
[10] = dose-response, read-out: SARS CoV-2 macrodomain HTRF assay: Ki
[11] = from SARS CoV-2 macrodomain HTRF assay
[12] = ligand modeling in Mac1 crystal structure
[13] = stereoisomer(s) modeled in Mac1 crystal structure
[14] = SARS CoV-2 macrodomain HTRF assay, dose-response, read-out: IC50
[15] = Single dose, concentration 200 μM, read-out: Average % competition
[16] = Single dose, concentration 200 μM, read-out: SARS CoV-2 macrodomain HTRF assay: Average % competition

Structure (SMILES)	Number of isomers bound [2, 5]	inhibition at 200 µM [1, 7]	IC50 [1, 9]	Ki [1, 10]	Ligand efficiency (binding enery per heavy atom) [1, 11]	Number of isomers bound [2, 12]	further results
CC(c1ccccc1)C(CO)Nc1ncnc2[nH]ccc12 (centres unmarked) [AVI-3669]	1	–	–	–	–	–	fold more potent / increased binding affinity than AVI-313 parent ([1]; HTRF IC50 compared with AVI-313): > 10 fold; Ligand efficiency (binding enery per heavy atom) [1, 3]: 0.33; Ki [1, 4]: 8.1 µM; Ligand efficiency [1]: 0.33; IC50 ([1]; read-out: HTRF IC50): 8.7 µM; PanDDA run, TFA/DMSO background map: 1-BDC ([2]; crystal soak 10 mM): 0.09; PanDDA run, TFA/DMSO background map: Hit ([2]; crystal soak 10 mM): TRUE
CC1CCN(C(=O)c2ccc3c(c2)nc(CO)n3C)CC1C(=O)O (centres unmarked) [AVI-348]	1	< 10%	–	–	–	–	inhibition at 200 µM [1, 6]: < 10%
Cc1c(C)n(Cc2ccccc2)c2ncnc(N)c12 [AVI-321]	1	19%	–	–	–	–	inhibition at 200 µM [1, 6]: 19%; Isomers modeled [2, 8]: achiral
CC(C)(O)C1C2CCCCC2CN1c1ncnc2[nH]ccc12 (centres unmarked) [AVI-4127]	–	–	130 µM	120 µM	0.25	2	Isomers modeled [2, 13]: SSR,SRS
CC1CCCC(O)(CNc2ncnc3[nH]ccc23)C1 (centres unmarked) [AVI-4307]	–	–	40 µM	37 µM	0.32	1	–
CCC(CC)(CO)Nc1ncnc2[nH]ccc12 [AVI-3695]	1	–	–	–	–	–	Ligand efficiency (binding enery per heavy atom) [1, 3]: 0.36; IC50 [1, 14]: 40 µM; Ki [1, 4]: 37 µM; Isomers modeled [2, 8]: achiral,achiral
O=C(O)C1CCCN1S(=O)(=O)c1cccc2nsnc12 (centres unmarked) [AVI-2]	1	23%	–	–	–	–	inhibition at 200 µM [1, 6]: 23%
OCC(CC1OCCO1)Nc1ncnc2[nH]ccc12 (centres unmarked) [AVI-3658]	1	11%	–	–	–	–	inhibition at 200 µM [1, 15]: 11%
OCC(CC1CCCCC1)Nc1ncnc2[nH]ccc12 (centres unmarked) [AVI-3690]	1	68%	–	–	–	–	inhibition at 200 µM [1, 15]: 66%
CC(C)(O)[C@H]1CCCN1c1ncnc2[nH]ccc12 [AVI-607, 2-[(2R)-1-{7H-Pyrrolo[2,3-d]pyrimidin-4-yl}pyrrolidin-2-yl]propan-2-ol]	1	–	–	4.7 µM	0.41	–	Ligand efficiency [1]: 0.41; IC50 ([1]; read-out: HTRF IC50): 5.1 µM
O[C@H]1CC[C@H]2CCN(c3ncnc4[nH]ccc34)[C@H]21 [AVI-5997]	–	–	37 µM	34 µM	0.34	1	Isomers modeled [2, 13]: SSR
Cc1c[nH]c2ncnc(NCC3(O)CCCC3)c12 [AVI-3760, 1-(((5-methyl-7H-pyrrolo[2,3-d]pyrimidin-4-yl)amino)methyl)cyclopentan-1-ol]	–	–	–	–	–	1	Hill slope ([1]; HTRF dose-response fit, Mac1): 1.1; Ligand efficiency (binding enery per heavy atom) [1, 3]: 0.36; Hill slope ([1]; SARS CoV-2 macrodomain HTRF assay, dose-response): 1.1; IC50 [1, 14]: 19 µM; Ki [1, 4]: 18 µM; Occupancy difference (refined_occupancy - 2*(1-BDC)) [2]: 18; Refined ligand occupancy (%) [2]: 50%; 1-BDC ([2]; PanDDA background density correction): 0.16; X-ray crystal structure ([2]; X-ray crystal structure determined (TRUE)): TRUE; Hit (PanDDA run, overall) ([2]; crystal soak 10 mM, P43 crystals): TRUE; Hit (PanDDA run, DMSO background map) ([2]; crystal soak 10 mM, DMSO background map): TRUE; 1-BDC (PanDDA run, DMSO background map) ([2]; crystal soak 10 mM, DMSO background map, event 1): 0.19 and 0.16; Total number of conformations ([2]; ligand conformations modeled in Mac1 crystal structure): 2; 2*(1-BDC) (%) ([2]; occupancy estimate from PanDDA BDC): 32%; Binding site ([2]; site of ligand in X-ray crystal structure): Adenosine; Isomers modeled [2, 13]: achiral,achiral
OC1(CNc2ncnc3[nH]ccc23)CCCOC1 (centres unmarked) [AVI-4311]	–	–	170 µM	160 µM	0.29	1	–
CC(CNC(=O)c1ccc2c(c1)CCC(=O)N2)C(=O)O (centres unmarked) [AVI-328]	2	–	–	–	–	–	Ligand efficiency (binding enery per heavy atom) [1, 3]: 0.25; Ki ([1]; SARS CoV-2 macrodomain HTRF assay, read-out: Ki): 210 µM; IC50 ([1]; read-out: HTRF IC50): 220 µM; Isomers modeled [2, 8]: R,S
CCC(O)[C@H]1CCCN1c1ncnc2[nH]ccc12 (some centres unmarked) [AVI-3666]	1	–	–	–	0.34	–	fold decrease in binding affinity compared to AVI-4062 [1]: ~ 4 fold
C#CCC(CO)Nc1ncnc2[nH]ccc12 (centres unmarked) [AVI-3644]	1	43%	–	–	–	–	inhibition at 200 µM [1, 15]: 43%; PanDDA run, TFA/DMSO background map: 1-BDC ([2]; crystal soak 10 mM): 0.11; PanDDA run, TFA/DMSO background map: Hit ([2]; crystal soak 10 mM): TRUE
OC1CCC(O)(CNc2ncnc3[nH]ccc23)CC1 (centres unmarked) [AVI-6220]	–	–	260 µM	240 µM	0.26	1	Isomers modeled [2, 13]: rr,rr
OC1(CNc2ncnc3[nH]ccc23)CCCSC1 (centres unmarked) [AVI-4322]	–	–	53 µM	49 µM	0.33	1	–
OCC(Nc1ncnc2[nH]ccc12)C1CCOC1 (centres unmarked) [AVI-3679]	1	35%	–	–	–	–	inhibition at 200 µM [1, 15]: 35%; PanDDA run, TFA/DMSO background map: 1-BDC ([2]; crystal soak 10 mM): 0.11; PanDDA run, TFA/DMSO background map: Hit ([2]; crystal soak 10 mM): TRUE
CCC1(O)CCN(c2ncnc3[nH]ccc23)C1 (centres unmarked) [AVI-612]	1	22%	–	–	–	–	inhibition at 200 µM [1, 15]: 22%
OCC(CC1CCCC1)Nc1ncnc2[nH]ccc12 (centres unmarked) [AVI-3691]	1	53%	–	–	–	–	inhibition at 200 µM [1, 15]: 52%; PanDDA run, TFA/DMSO background map: 1-BDC ([2]; crystal soak 10 mM): 0.1; PanDDA run, TFA/DMSO background map: Hit ([2]; crystal soak 10 mM): TRUE
CO[C@@H]1C[C@H](CO)N(c2ncnc3[nH]ccc23)C1 [AVI-3656]	1	41%	–	–	–	–	inhibition at 200 µM [1, 16]: 41%
OCC(Cc1cncs1)Nc1ncnc2[nH]ccc12 (centres unmarked) [AVI-3703]	1	28%	–	–	–	–	inhibition at 200 µM [1, 15]: 28%; PanDDA run, TFA/DMSO background map: 1-BDC ([2]; soak concentration 10 mM): 0.1; PanDDA run, TFA/DMSO background map: Hit ([2]; soak concentration 10 mM): TRUE
CC(C)(CO)Nc1ncnc2[nH]ccc12 [AVI-5266]	–	–	–	–	–	1	IC50 [1, 14]: 32 µM; Ki [1, 4]: 30 µM; IC50 ([1]; read-out: HTRF IC50): 110 µM; Isomers modeled [2, 13]: achiral
OC1(CNc2ncnc3[nH]ccc23)CC2CCC1CC2 (centres unmarked) [AVI-4320]	–	–	83 µM	77 µM	0.28	1	–
Cc1cc2c(=O)n(CCN3C(=O)c4ccccc4S3(=O)=O)nnc2s1 [AVI-341]	1	11%	–	–	–	–	inhibition at 200 µM [1, 6]: 11%; Isomers modeled [2, 8]: achiral
OC1(CNc2ncnc3[nH]ccc23)CCCC(C(F)(F)F)C1 (centres unmarked) [AVI-4309]	–	–	150 µM	140 µM	0.24	1	–
CC(C)(C)C1CCC(CO)N(c2ncnc3[nH]ccc23)C1 (centres unmarked) [AVI-3719]	1	36%	–	–	–	–	inhibition at 200 µM [1, 16]: 36%
OC1(CNc2ncnc3[nH]ccc23)CCSCC1 [AVI-4319]	–	–	170 µM	160 µM	0.29	1	Isomers modeled [2, 13]: achiral
Cc1sc2ncnc(Sc3ccccc3C(=O)O)c2c1C [AVI-317]	1	–	–	–	–	–	IC50 ([1]; Dose-response, SARS CoV-2 macrodomain HTRF assay, read-out: IC50): > 1000 µM; Isomers modeled [2, 8]: achiral,achiral
